Measurements reported in US20260085067A1, “CYCLIC SULFONAMIDE RIBONUCLEOTIDE REDUCTASE (RNR) INHIBITORS AND USES THEREOF” (Boundless Bio, Inc., priority 2022, published 2026).

system: pCHK1 (S345) in Colo320 DM cells; assay: Alphalisa assay, detection of pCHK1 (S345) in Colo320 DM cells; format: cell-based, human; details: Homo sapiens, COLO 320DM, compound overnight (approximately 16 hours)
Protocol: Colo320 DM cells (ATCC #CCL-220, derived from human colorectal adenocarcinoma, Dukes' type C) were seeded on a […], cell culture treated assay plate at a density of 50,000 cells/well in 200 μL of RPMI-1640 media supplemented with 10% Fetal Bovine Serum and incubated at 37° C. overnight. The following day, test compound dilutions were added directly to the plated cells by a Tecan digital dispenser to a final DMSO concentration of <0.5%. and incubated at 37° C. overnight (approximately 16 hours). The following day all cell culture media was removed from the cells. 75 μL of 1×AlphaLisa lysis buffer was added to each well and plates were agitated on a shaker for 30 minutes at room temperature. The lysis of cells and detection of pCHK1 (S345) were performed with reagents contained within the AlphaLisa Sure Fire assay kit (Perkin Elmer #ALSU-PCHK1-A) according to the manufacturer's instructions. 10 μL of each lysate was then transferred to a white, 384-well assay plate (Perkin Elmer #6008280). 5 μL of Acceptor mix was then added to each well of lysate in the white, 384-well assay plate and incubated in the dark at room temperature for 60 minutes. 5 μL of Donor mix was then added to each well of the white, 384-well assay plate in subdued light and incubated at room temperature for 60 minutes. Plates were read on an Alpha Technology-compatible plate reader using standard AlphaLisa settings.

Compound	IC50
Cc1ccc(F)c([C@H](C)[C@H](c2n[nH]c(=O)o2)N2CN(CC(O)CO)c3cc(Cl)ccc3S2(=O)=O)c1C (mixture of isomers) [Example 85, 5-((1R,2S)-1-(6-chloro-4-(2,3-dihydroxypropyl)-1,1-dioxido-3,4-dihydro-2H-benzo[e][1,2,4]thiadiazin-2-yl)-2-(6-fluoro-2,3-dimethylphenyl)propyl)-1,3,4-oxadiazol-2 (3H)-one]	1 to 5 µM
Cc1ccc(F)c([C@@H](C)[C@@H](c2n[nH]c(=O)o2)N2CCOc3c(ccc(Cl)c3C(C)O)S2(=O)=O)c1C (single isomer, unassigned) [Example 28]	> 50 µM
Cc1ccc(F)c([C@@H](C)[C@@H](c2n[nH]c(=O)o2)N2C(C)N(C)c3cc(Cl)ccc3S2(=O)=O)c1C (stereo partly drawn) [Example 11, 5-((1S,2R)-1-(6-chloro-3,4-dimethyl-1,1-dioxido-3,4-dihydro-2H-benzo[e][1,2,4]thiadiazin-2-yl)-2-(6-fluoro-2,3-dimethylphenyl)propyl)-1,3,4-oxadiazol-2 (3H)-one]	10 to 50 µM
Cc1ccc(F)c([C@@H](C)[C@@H](c2n[nH]c(=O)o2)N2COc3c(ccc(Cl)c3C)S2(=O)=O)c1C [Example 31, 5-((1S,2R)-1-(6-chloro-5-methyl-1,1-dioxidobenzo[e][1,4,3]oxathiazin-2 (3H)-yl)-2-(6-fluoro-2,3-dimethylphenyl)propyl)-1,3,4-oxadiazol-2 (3H)-one]	1 to 5 µM
Cc1ccc(F)c([C@@H](C)[C@@H](c2n[nH]c(=O)o2)N2CN(CC(C)(C)O)c3cc(Cl)ccc3S2(=O)=O)c1C [Example 91, 5-((1S,2R)-1-(6-chloro-4-(2-hydroxy-2-methylpropyl)-1,1-dioxido-3,4-dihydro-2H-benzo[e][1,2,4]thiadiazin-2-yl)-2-(6-fluoro-2,3-dimethylphenyl)propyl)-1,3,4-oxadiazol-2 (3H)-one]	≤ 1 µM
CC(=O)c1cc(Cl)cc2c1S(=O)(=O)N([C@H](c1n[nH]c(=O)o1)[C@@H](C)c1c(F)ccc(C)c1C)CN2C1CC1 [Example 94, 5-((1S,2S)-1-(8-acetyl-6-chloro-4-cyclopropyl-1,1-dioxido-3,4-dihydro-2H-benzo[e][1,2,4]thiadiazin-2-yl)-2-(6-fluoro-2,3-dimethylphenyl)propyl)-1,3,4-oxadiazol-2 (3H)-one]	1 to 5 µM
Cc1ccc(F)c([C@@H](C)[C@@H](c2n[nH]c(=O)o2)N2CN(C3CN(CC(F)F)C3)c3cc(Cl)ccc3S2(=O)=O)c1C [Example 107, 5-((1S,2R)-1-(6-chloro-4-(1-(2,2-difluoroethyl)azetidin-3-yl)-1,1-dioxido-3,4-dihydro-2H-benzo[e][1,2,4]thiadiazin-2-yl)-2-(6-fluoro-2,3-dimethylphenyl)propyl)-1,3,4-oxadiazol-2 (3H)-one]	≤ 1 µM
Cc1ccc(F)c([C@@H](C)[C@@H](c2n[nH]c(=O)o2)N2CN(CCF)c3cc(Cl)ccc3S2(=O)=O)c1C [Example 108, 5-((1S,2R)-1-(6-chloro-4-(2-fluoroethyl)-1,1-dioxido-3,4-dihydro-2H-benzo[e][1,2,4]thiadiazin-2-yl)-2-(6-fluoro-2,3-dimethylphenyl)propyl)-1,3,4-oxadiazol-2 (3H)-one]	≤ 1 µM
CC(=O)c1cc(Cl)cc2c1S(=O)(=O)N([C@H](c1n[nH]c(=O)o1)[C@H](C)c1c(F)ccc(C)c1C)CN2 [Example 109, 5-((1S,2R)-1-(8-acetyl-6-chloro-1,1-dioxido-3,4-dihydro-2H-benzo[e][1,2,4]thiadiazin-2-yl)-2-(6-fluoro-2,3-dimethylphenyl)propyl)-1,3,4-oxadiazol-2 (3H)-one]	≤ 1 µM
CC(=O)c1cc(Cl)cc2c1S(=O)(=O)N([C@H](c1n[nH]c(=O)o1)[C@H](C)c1c(F)ccc(C)c1C)CN2CCO [Example 110, 5-((1S,2R)-1-(8-acetyl-6-chloro-4-(2-hydroxyethyl)-1,1-dioxido-3,4-dihydro-2H-benzo[e][1,2,4]thiadiazin-2-yl)-2-(6-fluoro-2,3-dimethylphenyl)propyl)-1,3,4-oxadiazol-2 (3H)-one]	≤ 1 µM
Cc1ccc(F)c([C@@H](C)[C@@H](c2n[nH]c(=O)o2)N2CN([C@H]3C[C@@H](N(C)C)C3)c3cc(Cl)ccc3S2(=O)=O)c1C [Example 111, 5-((1S,2R)-1-(6-chloro-4-((1s,3R)-3-(dimethylamino)cyclobutyl)-1,1-dioxido-3,4-dihydro-2H-benzo[e][1,2,4]thiadiazin-2-yl)-2-(6-fluoro-2,3-dimethylphenyl)propyl)-1,3,4-oxadiazol-2 (3H)-one]	≤ 1 µM
Cc1ccc(F)c([C@@H](C)[C@@H](c2n[nH]c(=O)o2)N2CN([C@H]3C[C@@H](O)C3)c3cc(Cl)ccc3S2(=O)=O)c1C [Example 112, 5-((1S,2R)-1-(6-chloro-4-((1s,3R)-3-hydroxycyclobutyl)-1,1-dioxido-3,4-dihydro-2H-benzo[e][1,2,4]thiadiazin-2-yl)-2-(6-fluoro-2,3-dimethylphenyl)propyl)-1,3,4-oxadiazol-2 (3H)-one]	≤ 1 µM
Cc1ccc(F)c([C@@H](C)[C@@H](c2n[nH]c(=O)o2)N2CN(CCN)c3cc(Cl)ccc3S2(=O)=O)c1C [Example 113, 5-((1S,2R)-1-(4-(2-aminoethyl)-6-chloro-1,1-dioxido-3,4-dihydro-2H-benzo[e][1,2,4]thiadiazin-2-yl)-2-(6-fluoro-2,3-dimethylphenyl)propyl)-1,3,4-oxadiazol-2 (3H)-one]	5 to 10 µM
Cc1ccc(F)c([C@@H](C)[C@@H](c2n[nH]c(=O)o2)N2CN(OCc3ccccc3)c3cc(Cl)ccc3S2(=O)=O)c1C [Example 114, 5-((1S,2R)-1-(4-(benzyloxy)-6-chloro-1,1-dioxido-3,4-dihydro-2H-benzo[e][1,2,4]thiadiazin-2-yl)-2-(6-fluoro-2,3-dimethylphenyl)propyl)-1,3,4-oxadiazol-2 (3H)-one]	5 to 10 µM
CNCCN1CN([C@H](c2n[nH]c(=O)o2)[C@H](C)c2c(F)ccc(C)c2C)S(=O)(=O)c2ccc(Cl)cc21 [Example 115, 5-((1S,2R)-1-(6-chloro-4-(2-(methylamino)ethyl)-1,1-dioxido-3,4-dihydro-2H-benzo[e][1,2,4]thiadiazin-2-yl)-2-(6-fluoro-2,3-dimethylphenyl)propyl)-1,3,4-oxadiazol-2 (3H)-one]	5 to 10 µM
CC(=O)c1cc(Cl)cc2c1S(=O)(=O)N([C@H](c1n[nH]c(=O)o1)[C@H](C)c1c(F)ccc(C)c1C)CC(=O)N2 [Example 119, 5-((1S,2R)-1-(9-acetyl-7-chloro-1,1-dioxido-4-oxo-4,5-dihydrobenzo[f][1,2,5]thiadiazepin-2 (3H)-yl)-2-(6-fluoro-2,3-dimethylphenyl)propyl)-1,3,4-oxadiazol-2 (3H)-one]	5 to 10 µM

same assay, conditions: compound overnight (approximately 16 hours)

Compound	IC50
Cc1ccc(F)c([C@@H](C)[C@@H](c2n[nH]c(=O)o2)N2CCOc3c(ccc(Cl)c3C(C)O)S2(=O)=O)c1C (single isomer, unassigned) [Example 29]	> 50 µM

molecular target: T1, RNR (RNR1:RNR2 1:1) (Homo sapiens, UniProt P23921); assay: RNR enzyme activity, rapid-fire mass spectrometry (RF/MS) assay; format: biochemical; details: [RNR] 50 nM, 1:1 RNR1:RNR2; CDP 5 μM; ATP 1 mM; 37° C., 45 min; compounds screened up to 50 μM
T1 sequence (P23921 1-792): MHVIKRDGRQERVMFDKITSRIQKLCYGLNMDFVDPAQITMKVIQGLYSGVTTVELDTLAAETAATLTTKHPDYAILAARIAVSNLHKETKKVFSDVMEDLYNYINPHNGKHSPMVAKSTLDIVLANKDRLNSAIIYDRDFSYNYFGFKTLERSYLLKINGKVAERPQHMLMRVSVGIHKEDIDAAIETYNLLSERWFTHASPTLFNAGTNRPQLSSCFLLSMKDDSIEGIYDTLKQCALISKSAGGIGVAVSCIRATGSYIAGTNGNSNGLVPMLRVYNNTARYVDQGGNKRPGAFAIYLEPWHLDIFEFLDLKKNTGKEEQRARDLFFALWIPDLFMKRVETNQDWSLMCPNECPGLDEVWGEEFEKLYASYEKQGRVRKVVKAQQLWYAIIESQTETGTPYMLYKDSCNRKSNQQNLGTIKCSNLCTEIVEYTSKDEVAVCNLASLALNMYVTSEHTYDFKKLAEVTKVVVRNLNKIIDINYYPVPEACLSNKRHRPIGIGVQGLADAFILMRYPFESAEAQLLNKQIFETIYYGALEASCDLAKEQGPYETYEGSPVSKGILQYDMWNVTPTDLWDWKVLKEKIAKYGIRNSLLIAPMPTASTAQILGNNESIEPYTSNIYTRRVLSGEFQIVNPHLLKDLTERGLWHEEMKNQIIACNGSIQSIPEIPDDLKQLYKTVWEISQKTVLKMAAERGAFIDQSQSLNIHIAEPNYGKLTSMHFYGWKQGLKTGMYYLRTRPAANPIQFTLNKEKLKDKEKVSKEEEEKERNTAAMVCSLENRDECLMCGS
Protocol: A rapid-fire mass spectrometry (RF/MS) assay was used to assess RNR enzyme activity using a 384 well plate and a robotic platform.
The plate layout included two validated reference compounds (Triapine (3-AP) and Hydroxyurea (HU)): • A dose response in duplicate; top concentration: 5 μM (3-AP) and 250 μM (HU), semi-log dilutions. • Spike wells in triplicate randomly spotted at four concentrations: • 250 μM, 100 μM, 30 μM and 2 μM for HU • 5 μM, 2 μM, 0.6 μM and 0.04 μM for 3-AP
First, the multidrop pipes were saturated for 30 minutes with enzymatic solution. Then 30 μL of Stop solution was distributed in column 24. Next, 15 μL of enzyme was distributed in column 1 to 24. Next, a pre-incubation step of 15 minutes at room temperature occurred, followed by distribution of 15 μL of substrate solution (column 1 to 24). Next, the plate was incubated for 45 minutes at 37° C. 30 μL of Stop solution was then distributed to columns 1 to 23.
The final parameters for the enzyme reactions were: • Incubation: 37° C., 45 min • [CDP]: 5 μM; [ATP]: 1 mM; [NADPH]: No • [RNR]final: 50 nM with 1:1 (RNR1:RNR2) ratio • Final volume: 30 μL • Stop solution: 6% HCOOH in water

Compound	IC50
Cc1ccc(F)c([C@H](C)[C@H](c2n[nH]c(=O)o2)N2CN(CC(O)CO)c3cc(Cl)ccc3S2(=O)=O)c1C (mixture of isomers) [Example 85, 5-((1R,2S)-1-(6-chloro-4-(2,3-dihydroxypropyl)-1,1-dioxido-3,4-dihydro-2H-benzo[e][1,2,4]thiadiazin-2-yl)-2-(6-fluoro-2,3-dimethylphenyl)propyl)-1,3,4-oxadiazol-2 (3H)-one]	< 0.02 µM
Cc1ccc(F)c([C@@H](C)[C@@H](c2n[nH]c(=O)o2)N2CCOc3c(ccc(Cl)c3C(C)O)S2(=O)=O)c1C (single isomer, unassigned) [Example 28]	1 to 10 µM
Cc1ccc(F)c([C@@H](C)[C@@H](c2n[nH]c(=O)o2)N2CCOc3c(ccc(Cl)c3C(C)O)S2(=O)=O)c1C (single isomer, unassigned) [Example 29]	10 to 100 µM
